Results taken from US20050267038A1, “Novel diphenylazetidinones, process for their preparation, medicaments comprising these compounds and their use” (Aventis Pharma Deutschland GmbH, priority 2000, published 2005).

Columns and labels:
cholesterol absorption = experiment: Cholesterol absorption test: uptake of 14C-cholesterol by the liver; type: in vivo, mouse; conditions: dose at which the uptake of 14C-cholesterol by the liver is halved (50%), based on a control group; test substance given immediately prior to peroral test meal; liver after 24 h
Excerpt: Effect on Cholesterol Absorption +^3H-Taurocholic Acid Excretion Using Fecal Excrement of Mice, Rats or Hamsters
NMRI mice, Wistar rats, or Golden Syrian hamsters (in groups of n=4-6) are kept in metabolic cages, where they are fed with a standard diet (Altromin, Lage (Lippe)). The afternoon prior to the administration of the radioactive tracers (^14C-cholesterol), the feed is removed and the animals are adapted to grates.
Additionally, the animals are labeled s.c. with ^3H-TCA (taurocholic acid) (for example 1 μCi/mouse up to 5 μCi/rat) 24 hours prior to the peroral administration of the test meal (^14C-cholesterol in Intralipid® 20, Pharmacia-Upjohn).
Cholesterol absorption test: 0.25 ml/mouse Intralipid® (Pharmacia-Upjohn) ((spiked with 0.25 μCi of ^14C-cholesterol in 0.1 mg of cholesterol) is administered perorally by gavage.
Test substances are prepared separately in 0.5% methylcellulose (Sigma)/5% Solutol (BASF, Ludwigshafen) or a suitable vehicle.
The administration volume of the test substance is 0.5 ml/mouse. The test substance is administered immediately prior to the test meal (Intralipid labeled with ^14C-cholesterol) (cholesterol absorption test).
The feces are collected over a period of 24 h: fecal elimination of ^14C-cholesterol and ^3H-taurocholic acid (TCA) is determined after 24 hours.
The livers are removed and homogenized, and aliquots are incinerated in an oximate (Model 307, Packard) to determine the amount of ^14C-cholesterol which had been taken up/absorbed.
The amount of ^14C-cholesterol taken up by the liver is based on the administered dose. The ED50 values are interpolated from a dose-effect curve as the dose at which the uptake of ^14C-cholesterol by the liver is halved (50%), based on a control group.

[1] = Bioabsorption, Caco cell model; type: in vitro ADME; conditions: human, Caco-2; Caco cell model; read-out: Apparent partition coefficient Papp (according to Lit. Hilgers)
Excerpt: (§1) The bioabsorption of the compounds of the formula I can be examined using the Caco cell model (A. R. Hilgers et al., Caco-2 cell monolayers as a model for drug transport across the intestinal mucosa, Pharm. Res. 1990, 7, 902).
(§2) Below is a bioabsorption measurement for a reference compound: […]

Caco-2 cell monolayers = experiment: Bioabsorption, Caco cell model; type: in vitro ADME; conditions: estimated from Caco cell model
Excerpt: as §1, §2

Row | SMILES | ED50 (liver) (cholesterol absorption) | Papp [1] | Estimated human bioabsorption (Caco-2 cell monolayers)
1 | O=C(NCc1ccc(C2C(CCC(O)c3ccc(F)cc3)C(=O)N2c2ccc(F)cc2)cc1)C(O)C(O)C(O)C(O)CO (stereo not drawn) [Example II] | 0.1 mg/mouse | – | –
2 | C[N+](C)(C)CCCC(=O)NCc1ccc(C2C(CCC(O)c3ccc(F)cc3)C(=O)N2c2ccc(F)cc2)cc1.O=C([O-])C(F)(F)F (stereo not drawn) [Example XV, [3-(4-{1-(4-Fluorophenyl)-3-[3-(4-fluorophenyl)-3-hydroxypropyl]-4-oxoazetidin-2-yl}benzylcarbamoyl)propyl]trimethylammonium trifluoroacetate] | 0.01 mg/mouse | – | –
3 | COc1ccc(C2C(CCC(O)c3ccc(F)cc3)C(=O)N2c2ccc(CNC(=O)CCCCN(Cc3ccccc3)CC(O)C(O)C(O)C(O)CO)cc2)cc1.O=C(O)C(F)(F)F (stereo not drawn) [Example XVIII, Benzyl-(4-{4-[3-[3-(4-fluorophenyl)-3-hydroxypropyl]-2-(4-methoxyphenyl)-4-oxoazetidin-1-yl]benzylcarbamoyl}butyl)-(2,3,4,5,6-pentahydroxyhexyl)ammonium trifluoroacetate] | 1.0 mg/mouse | – | –
4 | COc1ccc(C2C(CCC(O)c3ccc(F)cc3)C(=O)N2c2ccc(CNC(C)=O)cc2)cc1 (stereo not drawn) [Example XX, N-{4-[3-[3-(4-Fluorophenyl)-3-hydroxypropyl]-2-(4-methoxyphenyl)-4-oxoazetidin-1-yl]benzyl}acetamide] | 0.03 mg/mouse | – | –
5 | C[N+](C)(C)CCCCC(NC(=O)OCC1c2ccccc2-c2ccccc21)C(=O)NCc1ccc(C2C(CCC(O)c3ccc(F)cc3)C(=O)N2c2ccc(F)cc2)cc1.[Cl-] (stereo not drawn) [Example XXI] | 1.0 mg/mouse | – | –
6 | CN(CCOCCOCCOc1ccc(C2C(CCC(O)c3ccc(F)cc3)C(=O)N2c2ccc(F)cc2)cc1)CC(O)C(O)C(O)C(O)CO (stereo not drawn) [Example XXX, 1-(4-Fluorophenyl)-3-[3-(4-fluorophenyl)-3-hydroxypropyl]-4-{4-[2-(2-{2-[methyl-(2,3,4,5,6-pentahydroxyhexyl)amino]ethoxy}ethoxy)ethoxy]phenyl}azetidin-2-one] | 0.1 mg/mouse | – | –
7 | O=C1[C@H](CC[C@H](O)c2ccc(F)cc2)[C@@H](c2ccc(O)cc2)N1c1ccc(F)cc1 [Ezetimibe] | – | 4.88 ×10⁻⁶ cm/s | 100%
8 | COc1ccc(C2C(CCC(O)c3ccc(F)cc3)C(=O)N2c2ccc(CNC(=O)CCCCCCCCCCCNC(=O)C(O)C(O)C(O)C(O)CO)cc2)cc1 (stereo not drawn) [III, N-4-[3-[3-(4-Fluorophenyl)-3-hydroxypropyl]-2-(4-methoxyphenyl)-4-oxoazetidin-1-yl]benzyl-12-(2,3,4,5,6-pentahydroxyhexanoylamino)dodecanamide] | 0.003 mg/mouse | – | –
9 | O=C(COCCOCC(=O)NCc1ccc(C2C(CCC(O)c3ccc(F)cc3)C(=O)N2c2ccc(F)cc2)cc1)NCCOCCOCC(=O)C(O)C(O)C(O)C(O)CO (stereo not drawn) [XIII, N-(4-{1-(4-Fluorophenyl)-3-[3-(4-fluorophenyl)-3-hydroxypropyl]-4-oxoazetidin-2-yl}-benzyl)-2-[2-({2-[2-(3,4,5,6,7-pentahydroxy-2-oxoheptyloxy)ethoxy]-ethylcarbamoyl}-methoxy)ethoxy]acetamide] | 0.3 mg/mouse | – | –
10 | C[N+](C)(C)CCCCCOc1ccc(C2C(CCC(O)c3ccc(F)cc3)C(=O)N2c2ccc(F)cc2)cc1.[Br-] (stereo not drawn) [XXIV, [5-(4-{1-(4-Fluorophenyl)-3-[3-(4-fluorophenyl)-3-hydroxypropyl]-4-oxoazetidin-2-yl}phenoxy)pentyl]trimethylammonium bromide] | 0.3 mg/mouse | – | –
11 | CN(CCCCOc1ccc(C2C(CCC(O)c3ccc(F)cc3)C(=O)N2c2ccc(F)cc2)cc1)CC(O)C(O)C(O)C(O)CO (stereo not drawn) [XXV, 1-(4-Fluorophenyl)-3-[3-(4-fluorophenyl)-3-hydroxypropyl]-4-(4-{4-[methyl-(2,3,4,5,6-pentahydroxyhexyl)amino]butoxy}phenyl)azetidin-2-one] | 0.3 mg/mouse | – | –
